Structures are written as SMILES.

What all share (type): cell-based
For assay [1], the system named is H929 cells. Nature of the assay: Cell cycle progression (cells in S phase) in siRNA-transfected H929 cells. Particulars: 72 h treatment. The protocol:
The effect of CRBN in H929 cells was also evaluated. H929 cells were transfected with mock, negative control siRNA and CRBN-siRNA-7 for 24, 48, 72 and 96 h. Cells were treated 24 h after transfection with DMSO (0.1%), pomalidomide (1 μM), lenalidomide (10 μM) or 3-(5-amino-2-methyl-4-oxo-4H-quinazolin-3-yl)-piperidine-2,6-dione (“Compound B”) for 1, 2, 3 days and the effect on cell cycle and proliferation investigated. Lenalidomide, pomalidomide and Compound B induced a delay of cell cycle progression, measured as the decrease of the number of cells in S phase, in control mock and negative control siRNA-transfected cells after 72 h treatment (FIG. 2C). Knockdown of CRBN markedly abrogated immunomodulatory drugs-induced delay in cell cycle progression in H929 cells (FIG. 2C) from of 50 to 4% for lenalidomide, from 70 to 15% for pomalidomide, and from 65 to 22% for Compound B.

Assay [2] relates to CRBN. The experiment in a line: CRBN mRNA and protein expression after drug treatment (RT-PCR, Western blot). Particulars: H929 and U266B1 cells; pomalidomide 1 μM, lenalidomide 10 μM. In general terms: A western blot detects proteins with antibodies after separation by electrophoresis.
Assay [3] has as its system p21^WAF-1. Nature of the assay: p21WAF-1 mRNA and protein levels in U266B1 cells. To be noted: U266B1, control mock and negative control siRNA-transfected cells; pomalidomide 1 μM, lenalidomide 10 μM. The procedure: To further investigate the effects of CRBN on the cell cycle arrest induced by drugs we used RT-PCR and Western blot analysis to measure the levels of key cell cycle and apoptotic regulators. U266B1 cells were transfected with mock, negative control siRNA, CRBN-siRNA-7 and CRBN-siRNA-11 for 24, 48, 72 and 96 h (FIG. 3A). Cells were treated 24 h after transfection with DMSO (0.1%), pomalidomide (1 μM) and lenalidomide (10 μM) for 1, 2, 3 days and the effect on mRNA and protein levels of the cyclin-dependent kinase (CDK) inhibitor p21^WAF-1 were evaluated. It has been shown that lenalidomide- and pomalidomide-induced cell cycle arrest is dependent on up-regulation of p21^WAF-1 in […]. […] However, knockdown of CRBN prevents the induction of p21^WAF-1 indicating the successful abrogation of G1 arrest and renewal of S phase progression (FIGS. 3C & 3D).

Assay [4] relates to pRb. Nature of the assay: pRb phosphorylation in H929 cells (Western blot).
Assay [5] has as its system U266B1 cells. Nature of the assay: Gene expression profile by microarray in U266B1 cells. To be noted: negative control siRNA-transfected U266B1 cells; pomalidomide 1 μM, lenalidomide 10 μM; ±1.7 fold, P<0.05. The protocol: Gene expression profile using microarray technology identified 759 or 609 genes differentially modulated in negative control siRNA-transfected U266B1 cells treated with pomalidomide (1 μM) or lenalidomide (10 μM) compared to DMSO treated control (±1.7 fold; P<0.05 ANOVA p-value) (FIGS. 5A & 5B).

For assay [6], the system named is poly-ubiquitin chains. Nature of the assay: Global polyubiquitination by immunofluorescence in H929 cells. To be noted: 1 μM, 30 minutes. The protocol: Specific antibodies for poly-ubiquitin chains were used to study the effect of immunomodulatory drugs on global levels of ubiquitination. H929 cells were treated with lenalidomide (1 μM), pomalidomide (1 μM) or proteasome inhibitor MG132. After 30 minutes cells were process for immunofluorescence. Global levels of K63-linked polyubiquitination were quantified by Cellomics.

Assay [7] deals with OCI-Ly10. Nature of the assay: Apoptosis of DLBCL cells. The text has this: In order to define the place of lenalidomide for DLBCL therapy in specific patient populations and to understand the molecular mechanisms of efficacy, a panel of DLBCL cell lines was collected in this study. The DLBCL subtypes of the cell lines were confirmed based on literature information (Lenz G, et al., Proc Natl Acad Sci USA 2008; 105: 13520-5) and molecular analysis, including intracellular NF-κB activity or IRF4 expression, as well as gene expression profiling of key signature genes of activated B cells.

For assay [8], the system named is IRF4. The experiment in a line: IRF4 protein expression in ABC-DLBCL cells (Western blot). The protocol:
(§1) Cells were treated with test compounds or 0.1% DMSO for indicated times. Following incubation, cells were collected, pelleted with centrifugation, and immediately lysed in 0.1 ml lysis buffer containing 10 mM Tris-HCl pH 8.0, 10 mM EDTA, 150 mM NaCl, 1% NP-40, 0.5% SDS, 1 mM DTT, 1 mM Na3VO4, plus Complete protease inhibitor cocktail (Roche Applied Science, Indianapolis, Ind.), then processed with a Qiashredder™ (Qiagen, Valencia, Calif.) for 1 minute and frozen on dry ice. Samples were diluted with 6×SDS sample buffer and then boiled for 5 min. Approximately 30 μl of this mixture was loaded per lane on a Criterion Precast 4-12% Tris-HCl gel (Bio-Rad, Hercules, Calif.), electrophoresed, and transferred to nitrocellulose membranes (Bio-Rad, Hercules, Calif.). The membranes were blocked for 1 hour at room temperature using blocking buffer (LI-COR Biosciences, Lincoln, Nebr.), then incubated overnight at 4° C. with antibodies against either BCL-10, IRF4, CRBN or β-actin. Membranes were washed and incubated with IRDye Secondary Antibodies (1:30,000) for 1 hour at room temperature. A standard protocol was then followed for signal detection, using the Odyssey® Infrared Imaging System and software (LI-COR Biosciences, Lincoln, Nebr.).
To understand the molecular mechanism of lenalidomide on ABC-DLBCL cells, the effects of lenalidomide on IRF4 expression in these cells were investigated. […] Lenalidomide-induced decrease of IRF4 expression occurred as early as 1 day of drug treatment, with similar kinetics to that of the inhibitors (zVRPR-fmk and LY-333,531, respectively) of MALT1 and PKCβ, two key enzymes involved in NF-κB activation upon BCR engagement in B cells.

In assay [9] the test system is CARD11-BCL-10-MALT1 (CBM) complex. The experiment in a line: MALT1-induced BCL-10 cleavage (CBM complex activity) in ABC-DLBCL cells. The procedure:
as §1
This mutation has been reported to cause constitutive formation and activation of CARD11-BCL-10-MALT1 (CBM) complex of BCR signaling pathway, leading to NF-κB overactivation in lymphoma cells. See Lenz, G., et al., Science 2008, 319: 1676-9; Thome, M. et al., Cold Spring Harb Perspect Biol. 2010; 2: a003004. To investigate the potential involvement of CBM complex in lenalidomide-induced IRF4 inhibition in these cells, the effect of lenalidomide on the complex activity was examined by measuring MALT1 paracaspase enzymatic activity. MALT1 is activated upon association with BCL-10 and CARD11 to form active CBM complex and then cleaves its binding partners, such as BCL-10.

In the case of `Nc1cccc2c1CN(C1CCC(=O)NC1=O)C2=O` (stereo not shown) [lenalidomide, 3-(4-amino-1-oxo-1,3-dihydro-isoindol-2-yl)-piperidine-2,6-dione], the “delay in cell cycle progression (decrease of the number of cells in S phase)” value in assay [1] (H929 cells with knockdown of CRBN) was 4%. Also, the “delay in cell cycle progression (decrease of the number of cells in S phase)” value in assay [1] (control mock and negative control siRNA-transfected H929 cells) was found to be 50%. Besides, the “mRNA and protein expression of CRBN” value in assay [2] was “affected neither mRNA nor protein expression of CRBN significantly”. Besides, the p21 level result in assay [3] was “up-regulated”. In addition, the “phosphorylation of pRB” value in assay [4] is listed as “decreased”. Also, the “genes differentially modulated compared to DMSO treated control” value in assay [5] is 609 genes. In assay [6], the K-63-linked ubiquitination result is “but not K-63-linked ubiquitination” and the “total K48-linked polyubiquitination” value is given as “decrease”. In addition, in assay [7], the “apoptosis of sensitive cell lines” value was “induced apoptosis”. Further, the IRF4 levels result in [8] (OCI-Ly3 cells, 1-3 day treatments) is recorded as “neither lenalidomide nor the PKCβ inhibitor had any appreciable effect”. Besides, the IRF4 protein levels result in assay [8] (sensitive cell lines U2932 and OCI-Ly10, treatment for 1-3 days) is recorded as “significantly downregulate”. The BCL-10 cleavage entry in assay [9] (OCI-Ly3 cells) is listed as “neither the PKCβ inhibitor nor lenalidomide had any effect”. In [9] (sensitive ABC-DLBCL cell lines OCI-Ly10 and U2932), the “MALT1-induced BCL-10 cleavage” value is on record as “inhibited MALT1-induced BCL-10 cleavage in a concentration-dependent manner”.

These data come from US10047151B2, “Methods for the treatment of cancer and inflammatory diseases using cereblon as a predictor” (Celgene Corporation, priority 2011, dated 2018).
